# What was measured:
# [1] = system: cell lines; assay: NA rescue phenotype of cell lines treated with Nampt inhibitor (Nicotinic Acid Rescue Cytotoxicity Assays); type: cell-based
# Method: Cell lines were treated with a fixed dose of Exemplary Compound A and screened for NA rescue and Naprt1 expression by immunoblotting and qRT-PCR (Table 3). […] The 176 cell lines included 5 normal (non-cancerous) cell lines and 3 primary cell lines (italicized in the table), all of which rescued. Naprt1 was quantified by western blotting and qRT-PCR in 164 and 123 of the 176 cell lines, respectively. […] A statistically significant (p value <0.0001) correlation existed between a NA rescue phenotype and Naprt1 protein or mRNA expression levels.
# Additionally, Nicotinic Acid (NA) rescue of cytotoxicity of Nampt inhibitors was assessed by two distinct methods. In the first method, Nampt1 inhibitor cytotoxicity was evaluated in the presence and absence of exogenous nicotinic acid (NA) at a fixed concentration. […] Twenty four hours after cells were plated, the media was removed and replaced with media containing 10 μM nicotinic acid. Compounds were then immediately added. Cell viability was then assessed at 72 h.
# Cell viability was then assessed at 72 h.
# [2] = type: in vivo; settings: mice, single oral dose 300 mg/kg, by 5 days
# [3] = of 176 cell lines tested, fixed dose
smiles,measurement,setting,value
"O=C(NCc1cccnc1)Nc1ccc(COc2ccccc2-c2ccccc2)cc1 [Exemplary Compound A, 1-{4-[(biphenyl-2-yloxy)methyl]phenyl}-3-(pyridin-3-ylmethyl)urea]",Rescuable by NA?,"[1]; A172, glioma",no
same,Rescuable by NA?,"[1]; COLO-205, colorectal",yes
same,Rescued by NA? (partial indicates <70% rescue),[1]; DEL cells (lymphoma),Y (partial)
same,Rescuable by NA?,"[1]; DMS-114, SCLC",yes
same,Rescued by NA? (partial indicates <70% rescue),[1]; H4 cells (brain; neuroglioma),Y (partial)
same,Rescuable by NA?,"[1]; HCC827, NSCLC",no
same,Rescuable by NA?,"[1]; HCT-116, colorectal",yes
same,Rescuable by NA?,"[1]; HT29, colorectal",yes
same,Rescuable by NA?,"[1]; HT-1080, fibrosarcoma",no
same,Rescued by NA? (partial indicates <70% rescue),[1]; Hepa1-6 cells (mouse; hepatoma),Y (partial)
same,Rescued by NA? (partial indicates <70% rescue),[1]; MOLP-8 cells (myeloma),Y (partial)
same,Rescued by NA? (partial indicates <70% rescue),[1]; MONO-MAC-6 cells (lymphocytic leukemia),Y (partial)
same,Rescuable by NA?,"[1]; MiaPaCa2, pancreatic",no
same,Rescuable by NA?,"[1]; NCI-H82, SCLC",yes
same,Rescuable by NA?,"[1]; NCI-H460, NSCLC",no
same,Rescuable by NA?,"[1]; NCI-H522, NSCLC",no
same,Rescued by NA? (partial indicates <70% rescue),[1]; NCI-H596 cells (lung (NSCLC)),Y (partial)
same,Rescuable by NA?,"[1]; NCI-H929, multiple myeloma",no
same,Rescuable by NA?,"[1]; NCI-H1650, NSCLC",no
same,Rescuable by NA?,"[1]; NCI-N87, gastric",yes
same,Rescued by NA? (partial indicates <70% rescue),[1]; NOMO-1 cells (myelogenous leukemia),Y (partial)
same,Rescuable by NA?,"[1]; OCI-Ly19, DLBCL (NHL)",yes
same,Rescuable by NA?,"[1]; OPM-2, multiple myeloma",no
same,Rescuable by NA?,"[1]; OVCAR-8, ovarian",yes
same,Rescued by NA? (partial indicates <70% rescue),[1]; PFSK-1 cells (brain; malignant neuroectodermal tumor),Y (partial)
same,Rescued by NA? (partial indicates <70% rescue),[1]; RPMI-8226 cells (myeloma),Y (partial)
same,Rescuable by NA?,"[1]; SF-295, glioma",no
same,Rescued by NA? (partial indicates <70% rescue),[1]; SKM-1 cells (myelogenous leukemia),Y (partial)
same,Rescued by NA? (partial indicates <70% rescue),[1]; SR cells (lymphoma),Y (partial)
same,Rescued by NA? (partial indicates <70% rescue),[1]; SU-DHL-4 cells (lymphoma),Y (partial)
same,Rescuable by NA?,"[1]; SU-DHL-5, DLBCL (NHL)",no
same,Rescued by NA? (partial indicates <70% rescue),[1]; SU-DHL-8 cells (lymphoma),Y (partial)
same,Rescued by NA? (partial indicates <70% rescue),[1]; SUP-M2 cells (lymphoma),Y (partial)
same,Rescuable by NA?,"[1]; U-87MG, glioma",no
same,Fraction not rescued by NA,"[1]; bladder, 1 cell line tested",0%
same,Fraction not rescued by NA,"[1]; brain, 30 cell lines tested",53%
same,Fraction not rescued by NA,"[1]; breast, 7 cell lines tested",0%
same,Fraction not rescued by NA,"[1]; colon, 6 cell lines tested",0%
same,Fraction not rescued by NA,"[1]; fibrosarcoma, 5 cell lines tested",20%
same,Fraction not rescued by NA,"[1]; gastric, 1 cell line tested",0%
same,Fraction not rescued by NA,"[1]; kidney, 5 cell lines tested",20%
same,Fraction not rescued by NA,"[1]; liver, 4 cell lines tested",25%
same,Fraction not rescued by NA,"[1]; lung, NSCLC, 26 cell lines tested",27%
same,Fraction not rescued by NA,"[1]; lung, small cell, 7 cell lines tested",14%
same,Fraction not rescued by NA,"[1]; lymphocytic leukemia, 6 cell lines tested",17%
same,Fraction not rescued by NA,"[1]; lymphoma, 16 cell lines tested",38%
same,Fraction not rescued by NA,"[1]; melanoma, 3 cell lines tested",0%
same,Fraction not rescued by NA,"[1]; myelogenous leukemia, 10 cell lines tested",10%
same,Fraction not rescued by NA,"[1]; myeloma, 9 cell lines tested",44%
same,Rescued by NA? (partial indicates <70% rescue),"[1]; no.11 cells (brain; glioma, anaplastic)",Y (partial)
same,number of cell lines completely rescued by NA,[1]; [3],113
same,number of cell lines partially rescued by NA,[1]; [3],16
same,number of cell lines that did not rescue with NA,[1]; [3],47
same,Fraction not rescued by NA,"[1]; osteosarcoma, 6 cell lines tested",50%
same,Fraction not rescued by NA,"[1]; ovary, 3 cell lines tested",0%
same,Fraction not rescued by NA,"[1]; pancreas, 7 cell lines tested",14%
same,cancer cell lines that failed to be rescued or were only partially rescued by NA,[1]; panel of 147 cancer cell lines,38%
same,Fraction not rescued by NA,"[1]; prostate, 2 cell lines tested",0%
same,lethality,[2],completely lethal
